# Measurements as given in US20250249014A1, “A COMBINATION FOR TREATING A RETINAL DISEASE” (HADASIT MEDICAL RESEARCH SERVICES AND DEVELOPMENT LTD., priority 2022, published 2025).
# Where a name gives a salt, the structure may show the parent alone. Read-outs that look alike come from different tables or passages of the source.
# B1: Ranibizumab: a monoclonal antibody that inhibits VEGF (antibody, chains of the INN, looked up, V domains shown)
# VH: EVQLVESGGGLVQPGGSLRLSCAASGYDFTHYGMNWVRQAPGKGLEWVGWINTYTGEPTYAADFKRRFTFSLDTSKSTAYLQMNSLRAEDTAVYYCAKYPYYYGTSHWYFDVWGQGTLVTVSS
# VL: DIQLTQSPSSLSASVGDRVTITCSASQDISNYLNWYQQKPGKAPKVLIYFTSSLHSGVPSRFSGSGSGTDFTLTISSLQPEDFATYYCQQYSTVPWTFGQGTKVEIK
# Legend:
# [1] = tested on: HUVECs; test: Cell proliferation assay (WST-1) on HUVECs, with synergy analysis; assay type: cell-based, Human; details: for IC50 (inhibitory concentration of 50% cell growth compared to control) / IC50 / % of Inhibition ± SD: HUVECs proliferation; for dose-proliferation inhibition relationship: increasing SMI concentration; for IC50: Homo sapiens, HUVEC; for % of Inhibition ± SD: maximal attainable concentration of each SMI (28.421 μM, 17.85 μM, 20.99 μM); for effect of addition to the Azeliragon and EHop-016 combination on proliferation inhibition: CCR2-RA-[R] 22.74 μM
# Method: Cell proliferation assay—The principle of cell proliferation assay is illustrated in FIG. 1. Briefly, HUVECS were seeded and maintained in EGM™-2 (Lonza Bioscience Solutions) medium for 24 hours. The cells were then treated with various dosages of SMI for designated time periods. Each experiment included a DMSO-treated control group. Tetrazolium salt was added according to the manufacturer's instructions and formation of formazan dye was quantified by measuring the absorbance at 440 nm using spectrophotometer. The formation of formazan dye is directly proportional to number of living cells.
# Analysis of combined synergistic effect-Analysis of combined SMIs effect was determined from the results of the cell proliferation assay after 72 hours. SMIs synergy was determined by three synergy models. • 1. The Zero Interaction Potency (ZIP) model is a reference model for evaluating the effect of combination of two drugs by comparing the change in the potency of the dose-response curves between individual drugs and their combinations. A zip score higher than 10 is indicative of a synergistic combination, a zip score of between −10 and 10 is indicative of an additive combination and a zip score lower than −10 is indicative of an antagonistic combination. • 2. […] Values below 1 will represent synergism and above 1 antagonism.
# [2] = tested on: HUVECs; test: Endothelial cell migration assay (scratch test); assay type: cell-based, Human; details: EHop-016 0.8 μM at 11 hours, CCR2-RA-[R] 5 μM at 13 hours
# Method: Endothelial cell migration assay (scratch test)—5×10^4 cells/200 μl of HUVECs were cultured in 96 wells Incucyte® ImageLock 96-well microplates plates to near confluence in EGM™-2 medium for 24 hours. Afterwards, a homogeneous, 700-800-micron wide scratch wounds were created using Incucyte® WoundMaker. Different SMIs concentrations vs. DMSO (solvent) were added. Serial images for 26 hours of the migrating cells were obtained hourly using a live cell imaging system (Incucyte®).
# [3] = tested on: Hypoxia-inducible factor 1-alpha (HIF-1α); test: Western blot of HIF-1α expression in HUVEC cells; assay type: cell-based, Human; details: 72 hours, combination Azeliragon 0.6 μM and EHop-016 1.3 μM
# Method: Western blot—5×10^4 HUVEC cells were seeded in 10 cm dish in EGM™-2 medium for 24 hours. The cells were then treated with various dosages and combinations of SMI for 72 hours in addition to a control group treated with DMSO. Cells were lysed in WCE (whole-cell extraction) buffer [25 mM Hepes, pH 7.7, 0.3 M NaCl, 1.5 mM MgCl2, 0.2 mM EDTA, 0.1% Triton X-100, 0.5 mM DTT (dithiothreitol), 20 mM 2-glycerophosphate, 0.1 mM Na3VO4, 100 μg/ml PMSF and protease inhibitor cocktail (Sigma-Aldrich, 1:100 dilution)]. The proteins were then separated by SDS/PAGE (10% gel), followed by transfer on to a nitrocellulose membrane. Blots were blocked in 5% (w/v) non-fat dried skimmed milk powder in PBS and washed in PBS.
# [4] = tested on: choroidal neovascularization (CNV); test: Laser-Induced CNV model; assay type: in vivo, C57BL/6J mice; details: dosage calibration assays; EHop-016 30 μM, Aflibercept 41.27 μM
# Method: Laser-Induced CNV Model—CNV was induced in C57BL/6J mice using argon green ophthalmic laser ([…], 50 μm, 0.1 sec) applied under fundoscopy to rupture Bruch's membrane. […] The injections were performed at the superotemporal sclera, where a perforating sclerotomy was made with 27-gauge (G) needle at approximately 1-2 mm from the limbus. Then, 1-2 μl of SMIs (solved in 5% Cremophor: 5% ethanol: 90% saline) vs. Sham were injected through the sclerotomy, under fundoscopy using 34 g microsyringe (Hamilton, Benfleet, UK).
# Quantification of CNV—Eyes were enucleated, treated according to standard protocols. […] The flat mounts were then washed six times for 20 min each in PBS and mounted on a slide using mounting medium. The area of CNV surrounding each laser injury was measured using ImageJ software.
# [5] = tested on: choroid explants; test: Choroid sprouting assay, ex-vivo; assay type: cell-based, C57BL/6J mice; details: 7 days; 0.55 μM Azeliragon, EHop-016 alone, 0.70 μM in combination; compared to untreated and DMSO
# Method: Plates were then incubated for 10 minutes in 37° C., in a 5% CO2 cell culture incubator without medium to solidify the Matrigel™. […] Fresh medium and SMIs were replaced every two days and grown for 7 days (x3 time medium replaced).
# [6] = tested on: VEGF; details: diabetic macular edema patients; cited from earlier work
# Sequence of VEGF (P15692 207-311 limits assumed): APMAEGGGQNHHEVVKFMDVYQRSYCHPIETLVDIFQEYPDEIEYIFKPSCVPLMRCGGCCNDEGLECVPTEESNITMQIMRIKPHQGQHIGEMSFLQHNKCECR
# [7] = HUVECs, single 72-hour treatment
# [8] = single 72-hour treatment, read-out: IC50 (inhibitory concentration of 50% cell growth compared to control)
molecule,measurement,setting,value
"Cc1ccc(NC(=O)c2cccc(OCc3c(C)noc3C)c2)cc1S(N)(=O)=O (racemic) [Z62954982, 3-((3,5-Dimethylisoxazol-4-yl)methoxy)-N-(4-methyl-3-sulfamoyl-phenyl)benzamide]",IC50 (inhibitory concentration of 50% cell growth compared to control),[1]; single 72-hour treatment,No effect
same,inhibitory effect with longer incubation time,"[1]; HUVECs, treatment time extended to 120 hours compared to 72-hour incubation",did not improve the inhibitory effect
"COc1ccc(/C=C/c2cc(O)cc(O)c2)cc1 [4′-Methoxyresveratrol, 5-[(E)-2-(4-Methoxyphenyl)ethen-1-yl]benzene-1,3-diol]",dose-proliferation inhibition relationship,[1]; [7],linear inhibition of proliferation
same,IC50,[1]; [8],64 µM
"O=C(CNC(=O)c1cccc(C(F)(F)F)c1)N[C@@H]1CCN(Cc2ccc(Cl)cc2)C1 [CCR2 antagonist 4 hydrochloride, N-[2-[[(3R)-1-[(4-chlorophenyl)methyl]-3-pyrrolidinyl]amino]-2-oxoethyl]-3-(trifluoromethyl)benzamidehydrochloride]",% of Inhibition ± SD,[1],13.8 ± 8.07%
"CC(=O)C1=C(O)C(=O)N(c2ccc(Cl)cc2F)[C@@H]1C1CCCCC1 [CCR2-RA-[R], (R)-4-Acetyl-1-(4-chloro-2-fluorophenyl)-5-cyclohexyl-3-hydroxy-1,5-dihydro-2H-pyrrol-2-one]",inhibition of HUVECs migration,[2],strongly inhibited cell migration
same,inhibition of HUVECs proliferation (summary in words),[1],did not show significant inhibition
same,% of Inhibition ± SD,[1],33.4 ± 4.30%
same,effect of addition to the Azeliragon and EHop-016 combination on proliferation inhibition,"[1]; HUVECs, 24-hour treatment",significantly augmented the proliferation inhibition effect
same,effect of addition to the Azeliragon and EHop-016 combination on proliferation inhibition,"[1]; HUVECs, 48- and 72-hour treatment",not
"CCn1c2ccccc2c2cc(Nc3ccnc(NCCCN4CCOCC4)n3)ccc21 [EHop-016, N4-(9-Ethyl-9H-carbazol-3-yl)-N2-[3-(4-morpholinyl)propyl]-2,4-pyrimidinediamine]",inhibition of HUVECs migration,[2],strongest migration inhibitor
same,HIF-1α expression,[3],inhibited expression
same,dependence of proliferation inhibition on the initial number of cells,[1]; HUVECs at 3×10^3 and 1×10^3 cells/well,independent from the initial number of cells
same,decrease of IC50 by daily dosing in comparison with IC50 of SD regimen,"[1]; HUVECs, 72 hours",more than a half
same,dose-proliferation inhibition relationship,[1]; [7],linear inhibition of proliferation
same,IC50,"[1]; daily dosing, 72 hours, read-out: IC50 following daily dosing regimen",1.24 µM
same,IC50,[1]; [8],2.31 µM
same,CNV area,[4],comparable to the dramatic effect received from Aflibercept injection
same,area of the sprouting vessels,[5],inhibited the area of the sprouting vessels
"O=C(c1ccc(Cl)cc1)N(Cc1ccccc1)C1CCCCC1 [FPS-ZM1, 4-Chloro-N-cyclohexyl-N-(phenylmethyl)benzamide]",dose-proliferation inhibition relationship,[1]; [7],linear inhibition of proliferation
same,IC50,[1]; [8],30 µM
"CCN(CC)CCCC(C)Nc1nc(C)cc(Nc2ccc3nc(C)cc(N)c3c2)n1.Cl.Cl.Cl (stereo not shown) [NSC 23766 trihydrochloride, N6-[2-(4-Diethylamino-1-methyl-butylamino)-6-methyl-pyrimidin-4-yl]-2-methyl-quinoline-4,6-diamine trihydrochloride]",IC50 (inhibitory concentration of 50% cell growth compared to control),[1]; single 72-hour treatment,No effect
"O=C(NCC(=O)N1CC[C@H](NC2CCC(O)(c3ccc(-c4ncccn4)cn3)CC2)C1)c1cccc(C(F)(F)F)c1 (stereo partly drawn) [PF-4136309, N-[2-[(3S)-3-[[4-hydroxy-4-(5-pyrimidin-2-ylpyridin-2-yl)cyclohexyl]amino]pyrrolidin-1-yl]-2-oxoethyl]-3-(trifluoromethyl)benzamide]",% of Inhibition ± SD,[1],25.7 ± 7.68%
"Aflibercept: Aflibercept (Eylea®), comparator injection in Laser-induced CNV model",CNV area,[4],dramatic effect
B1,"clinical outcome (vision, macular edema)",[6],rapidly and sustainably improved vision
